Test results from the NIST ThermoML archive (doi:10.1016/j.fluid.2008.02.018).
Several values for one entry are separate records, joined by “and”; a condition that tells them apart may be missing. Equal entries are not always repeated. Numbers after ± are expanded uncertainties.

Key:
[1] = refractive index (Na D-line) (dimensionless); conditions: 298.15 K; 101.33 kPa; Liquid; Standard Abbe refractometry
[2] = Liquid; for mass density: 101.33 kPa

| refractive index [1] | mass density ([2]; 298.15 K) [kg/m3] | vapor or sublimation pressure ([2]; 298.15 K) [kPa] | vapor or sublimation pressure ([2]; 308.15 K) [kPa] | vapor or sublimation pressure ([2]; 318.15 K) | SMILES |
| --- | --- | --- | --- | --- | --- |
| 1.4421 ± 0.0007 | 1250.9 ± 1.7 | 10.81 ± 0.23 | 17.02 ± 0.31 | 25.77 ± 0.42 kPa | ClCCCl [1,2-dichloroethane] |
| 1.4482 ± 0.0007 | 943 ± 1.2 | 0.64 ± 0.06 | 1.15 ± 0.08 | 1.91 ± 0.09 kPa | O=C1CCCCC1 [cyclohexanone] |
| 1.4347 ± 0.0007 | 945.3 ± 1.2 | 1.72 ± 0.09 | 2.8 ± 0.1 | 4.64 ± 0.13 kPa | O=C1CCCC1 [cyclopentanone] |
| 1.4428 ± 0.0007 | 1475.9 ± 2.1 | 26.44 ± 0.48 | 40.19 ± 0.65 | 58.69 ± 0.87 kPa and 58.68 ± 0.87 kPa | ClC(Cl)Cl [trichloromethane] |
